Assays:
VEGF UTRs = experiment: luciferase reporter inhibition in B9 (VEGF 5' and 3' UTRs) versus B12 (control UTRs) stable cell lines; assay type: cell-based, human; conditions: about 10^-1 nM to about 10^4 nM
Procedure: A monocistronic reporter construct (pLuc/vegf5′+3′UTR) is under the transcriptional control of the CMV promoter and contains the VEGF 5′ UTR driving the luciferase reporter upstream of the VEGF 3′UTR. Stable cell lines are generated by transfecting 293 cells with the pLuc/vegf5′+3′UTR construct. A stable cell line is cultured under hygromycin B selection to create clonal cell lines consistent with protocols well known in the art. After two weeks of selection, clonal cell lines are screened for luciferase activity. The luciferase activity of several clonal cell lines (hereafter “Clones”) are compared and normalized against total protein content. Clones are maintained under hygromycin B selection for more than three months with intermittent monitoring of luciferase activity. Clones are stable and maintain a high level of luciferase expression. Many Clones, for example, about twenty, may be compared to each other with respect to luciferase activity. […] Particular parameters for Clones are studied prior to selection for use in post-transcriptional, high-throughput screening (HTS). […]
Chemical libraries in excess of 150,000 compounds are screened by HTS with a Clone containing the monocistronic reporter construct, pLuc/vegf5′+3′UTR. […] Data is analyzed as a normal distribution, which is apparent from graphical and statistical analysis of skewness and kurtosis. […]

FGF-2 and IGF-1 = experiment: ELISA assays for expression of angiogenesis factors in HeLa cells; assay type: cell-based; conditions: Homo sapiens, read-out: EC50 for inhibition of all these cytokines
Procedure: Compounds that target multiple angiogenesis factors (including VEGF) for the treatment of cancers are also identifiable. Several targets are used for these purposes, including TNF-α, FGF-2, G-CSF, IGF-1, PDGF, and HIF-1α. ELISA assays analyze levels of expression of these factors using commercially available kits from R&D Systems (Minneapolis, Minn.). UTR-specific HTS identified compounds are tested for their ability to inhibit the expression of a subset of these proteins, including FGF-2 and IGF-1 in HeLa cells.

SMILES: COc1ccc(C[C@H](N)C(=O)N[C@H]2[C@@H](O)[C@H](n3cnc4c(N(C)C)ncnc43)O[C@@H]2CO)cc1 [puromycin]
- difference in inhibition of luciferase expression between B9 and B12 cell lines (VEGF UTRs): No difference
- EC50 (FGF-2 and IGF-1): 0.2 to 2 µM
